Data: ChEMBL document CHEMBL1909046, “DrugMatrix in vitro pharmacology data”

Columns and labels:
[1] = target: T1, Alpha-1A adrenergic receptor (Rattus norvegicus, UniProt P43140); experiment: DRUGMATRIX: Alpha-1A adrenergic receptor radioligand binding (ligand: prazosin); assay type: cell membranes, Wistar, Submaxillary gland, Membrane; conditions: Not Active = under 50% inhibition at 10 µM
T1 sequence (P43140 whole entry): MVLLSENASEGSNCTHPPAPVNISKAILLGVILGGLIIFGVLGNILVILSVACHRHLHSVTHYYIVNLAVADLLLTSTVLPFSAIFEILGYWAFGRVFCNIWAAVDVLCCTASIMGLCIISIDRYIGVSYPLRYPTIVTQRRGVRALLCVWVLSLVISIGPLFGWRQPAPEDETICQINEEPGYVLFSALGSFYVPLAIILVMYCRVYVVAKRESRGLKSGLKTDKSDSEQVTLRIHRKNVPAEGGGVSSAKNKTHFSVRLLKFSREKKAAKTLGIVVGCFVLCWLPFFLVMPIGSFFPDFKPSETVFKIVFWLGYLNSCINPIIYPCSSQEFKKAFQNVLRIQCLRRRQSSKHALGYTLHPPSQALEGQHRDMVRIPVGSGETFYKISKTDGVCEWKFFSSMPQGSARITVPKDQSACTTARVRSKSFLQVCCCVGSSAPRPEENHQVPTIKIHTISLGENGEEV

[2] = DRUGMATRIX: Calcium Channel Type L, Benzothiazepine radioligand binding (ligand: [3H] Diltiazem); assay type: cell membranes, Rattus norvegicus, Wistar, Brain, Membrane; conditions: Not Active = under 50% inhibition at 10 µM
[3] = target: T2, C-X-C chemokine receptor type 2 (Homo sapiens, UniProt P25025); assay type: cell membranes, CHO-K1, Membrane; conditions: cho-k1; note: in other assays of this panel Not Active means under 50% inhibition at 10 µM
T2 sequence (P25025 whole entry): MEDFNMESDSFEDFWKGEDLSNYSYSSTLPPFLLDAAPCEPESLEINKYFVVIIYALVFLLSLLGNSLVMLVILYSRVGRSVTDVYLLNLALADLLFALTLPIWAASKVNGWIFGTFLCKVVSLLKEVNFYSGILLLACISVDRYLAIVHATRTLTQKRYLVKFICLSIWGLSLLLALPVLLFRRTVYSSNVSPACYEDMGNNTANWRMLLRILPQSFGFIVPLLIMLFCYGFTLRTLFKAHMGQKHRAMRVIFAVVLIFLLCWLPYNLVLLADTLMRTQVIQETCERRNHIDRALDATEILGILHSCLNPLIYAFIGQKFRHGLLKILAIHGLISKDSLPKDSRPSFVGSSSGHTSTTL

D(4) dopamine receptor = target: T3, D(4) dopamine receptor (Homo sapiens, UniProt P21917); experiment: DRUGMATRIX: Dopamine D4.2 radioligand binding (ligand: [3H] Spiperone); assay type: cell membranes, CHO-K1, Membrane; conditions: cho-k1; Not Active = under 50% inhibition at 10 µM
T3 sequence (P21917 whole entry): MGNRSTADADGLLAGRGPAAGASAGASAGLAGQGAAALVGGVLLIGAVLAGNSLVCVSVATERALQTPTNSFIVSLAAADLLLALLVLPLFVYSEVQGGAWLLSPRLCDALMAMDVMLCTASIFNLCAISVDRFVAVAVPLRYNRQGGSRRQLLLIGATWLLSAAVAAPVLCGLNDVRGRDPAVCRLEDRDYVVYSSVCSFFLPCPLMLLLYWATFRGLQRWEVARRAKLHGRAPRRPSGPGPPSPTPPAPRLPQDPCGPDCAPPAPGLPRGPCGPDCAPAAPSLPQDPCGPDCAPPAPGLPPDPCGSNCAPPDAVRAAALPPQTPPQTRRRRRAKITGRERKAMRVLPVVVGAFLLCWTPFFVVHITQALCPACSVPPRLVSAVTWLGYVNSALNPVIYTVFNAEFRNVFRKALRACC

[4] = target: T4, Neuropeptide Y receptor type 1 (Homo sapiens, UniProt P25929); assay type: cell membranes, Membrane; conditions: sk-n-mc; note: in other assays of this panel Not Active means under 50% inhibition at 10 µM
T4 sequence (P25929 whole entry): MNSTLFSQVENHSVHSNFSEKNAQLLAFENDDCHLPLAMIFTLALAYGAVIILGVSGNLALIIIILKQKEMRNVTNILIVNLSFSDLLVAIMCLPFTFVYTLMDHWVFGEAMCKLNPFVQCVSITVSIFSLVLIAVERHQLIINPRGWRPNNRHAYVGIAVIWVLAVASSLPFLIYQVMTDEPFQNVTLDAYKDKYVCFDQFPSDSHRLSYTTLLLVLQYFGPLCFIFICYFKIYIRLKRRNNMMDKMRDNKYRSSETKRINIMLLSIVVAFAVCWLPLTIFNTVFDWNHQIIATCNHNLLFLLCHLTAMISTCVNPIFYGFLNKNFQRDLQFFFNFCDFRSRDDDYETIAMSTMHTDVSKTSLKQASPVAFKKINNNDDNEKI

Neutrophil elastase = target: T5, Neutrophil elastase (Homo sapiens, UniProt P08246); assay type: tissue-based;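 note: inhibition of neutrophil elastase enzyme activity, measured with a p-nitroanilide-linked peptide substrate; in other assays of this panel Not Active means under 50% inhibition at 10 µM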
T5 sequence (P08246 whole entry): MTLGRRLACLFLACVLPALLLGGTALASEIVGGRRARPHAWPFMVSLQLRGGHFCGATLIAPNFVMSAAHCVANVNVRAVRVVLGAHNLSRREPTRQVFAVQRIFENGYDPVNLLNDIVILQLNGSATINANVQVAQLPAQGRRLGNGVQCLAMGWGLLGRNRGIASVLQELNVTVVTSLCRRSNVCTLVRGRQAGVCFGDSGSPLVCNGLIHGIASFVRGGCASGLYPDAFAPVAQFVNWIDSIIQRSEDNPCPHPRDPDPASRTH

LEAD(IV) ACETATE
Not Active: IC50 [1] | Ki [1] | IC50 [2] | Ki [2] | IC50 [3] | Ki [3] | IC50 (D(4) dopamine receptor) | Ki (D(4) dopamine receptor) | IC50 [4] | Ki [4] | IC50 (Neutrophil elastase) | Ki (Neutrophil elastase)
